Data from patent US7973218B2, “Methods and compositions for controlling weeds” (Pioneer Hi-Bred International, Inc., priority 2005, dated 2011).

Experiments:
[1] = tested on: non-glyphosate resistant ryegrass; assay: Control of ryegrass by glyphosate, metsulfuron-methyl and two additives; assay type: in vivo; settings: 0.5 L ha-1 glyphosate (SCAT) alone
Method: The example was conducted on non-glyphosate resistant ryegrass. As provided in Table 23, all treatments that included glyphosate [180 g a.i. L ha^−1 (0.5 L glyphosate (SCAT®))] plus metsulfuron-methyl (BRUSH-OFFS®) (5 and 10 g ha^−1) gave 100% control of the ryegrass.

[2] = tested on: Parent elite stiff stalk inbred corn; assay: Postemergence herbicide application to potted corn (fresh weight, visual injury); assay type: in vivo; settings: 3472 g ae/ha
[3] = tested on: Heterozygous GAT-HRA corn; assay: as above; assay type: in vivo; settings: 3472 g ae/ha
[4] = tested on: Glyphosate, Paraquat, and ACCase-Inhibitor Resistant Ryegrass; assay: Control of resistant ryegrass by glyphosate and representative SU's; assay type: in vivo; settings: glyphosate (SCAT) only or plus an SU
Source text: In this example, four different SU's were applied together with glyphosate (SCAT®) on the resistant ryegrass. The results as to the best SU partner for glyphosate were inconclusive, but the average benefit of applying an SU with glyphosate on herbicide resistant ryegrass was 39% (e.g., 34% control with glyphosate (SCAT®) only and 57-83% control with glyphosate (SCAT®) plus metsulfuron-methyl (BRUSH-OFF®), chlorsulfuron (GLEAN®), or triasulfuron (LOGRAN(®)).

[5] = tested on: Hairy Fleabane (Conyza bonariensis), glyphosate sensitive biotype; assay: Control of hairy fleabane by glyphosate, metsulfuron-methyl and two additives; assay type: in vivo; settings: glyphosate on its own
Method: This example included the same treatments as used in Example 11, except the treatments were carried out on a glyphosate sensitive biotype of Kleinskraalhans (Conyza bonariensis).

[6] = tested on: infected GS3 embryos with the GAT construct; assay: Glyphosate selection of infected embryos; assay type: cell-based, maize; settings: 1.0 mM or 2.0 mM glyphosate in medium; about 40 days culture
Method: (§1) A glyphosate kill curve was established by testing non-transformed embryos response on media with different levels of glyphosate. GS3 embryos were isolated from an immature ear and placed onto media containing glyphosate at 0.0, 0.5, 1.0, and 2.0 mM. After about 40 days culture, the response of the embryos were observed and recorded. Similarly, infected GS3 embryos with the GAT construct were placed onto media containing glyphosate at 0.0, 0.5, 1.0, and 2.0 mM. After about 40 days culture, the response of the infected embryos were observed and recorded (FIG. 7).

[7] = tested on: non-transformed GS3 embryos; assay: Glyphosate kill curve; assay type: cell-based, maize; settings: about 40 days culture
Method: as §1

[8] = tested on: Untransformed Coker 312 cotton plants; assay: Greenhouse over-the-top herbicide spray of cotton; assay type: in vivo, Gossypium hirsutum
Source text: (§2) Cotton (Gossypium hirsutum) Coker 312 was transformed with a GAT polynucleotide (gat 4621) together with an Hra polynucleotide (SEQ ID NO:86) both operably linked to strong, constitutive plant viral promoters. The promoter linked to gat4621 contains a duplicated portion of the Strawberry Vein Banding Virus transcript promoter (Wang et al. Virus Genes 20: 11-17, 2000; Genbank X97304). The Hra gene was driven by a duplicated portion of the Mirabilis Mosaic Caulimovirus full-length transcript promoter (U.S. Pat. No. 6,420,547; Dey and Maiti, Transgenics 3:61-70, 1999). The transformation procedure used Agrobacterium tumefaciens containing an expression cassette with the genes to be transferred and cotyledon explant derived callus with some capacity to undergo embryogenesis. The callus was exposed to Agrobacterium for 48-72 hours. The callus was then exposed to selection for transformed cells on 50-200 μg/l chlorosulfuron and/or 50-450 μM glyphosate in solid medium. Glyphosate can also be used in a concentration range of about 5 to about 450 μM. Selection was applied until somatic embryos formed, and selection was again applied at the embryo germination step, and optionally during rooting of plantlets. Over 450 GAT-HRA transformation events were produced using selection with both chlorsulfuron and glyphosate.
(§3) Transformed cotton plants were rooted and then transferred to soil for further growth. Plants were then subjected to herbicide spray treatments in a greenhouse. […] Untransformed Coker 312 control plants were dead 2 weeks after glyphosate application. […] Plants transformed with both GAT and HRA were further subjected to an “over the top” application of the sulfonylurea herbicide rimsulfuron at a rate of 16 g active ingredient/hectare. […] In further experiments 32 g ai/ha rimsulfuron were applied to the cotton.

[9] = tested on: GAT-HRA transgenic cotton plants; assay: Greenhouse over-the-top herbicide spray of cotton; assay type: in vivo, Gossypium hirsutum; settings: glyphosate 1.5 lb acid equivalent per acre; 14 days after application
Source text: as §2, §3

[10] = tested on: Soybeans comprising the lead GAT7 event and also having HRA; assay: Greenhouse test confirming the field trial (Example 6B); assay type: in vivo, soybean; settings: GAT/HRA Soybeans
Source text: Example 6B provides greenhouse data that confirms the field trial data provided above in Example 6A. Soybeans comprising the lead GAT7 event and also having HRA were used in the studies.

lead GAT7 soybean events = assay: Field efficacy experiment JHM5G030, visual rating 7 and 14 days after treatment; assay type: in vivo; settings: 7 DAS and 14 DAS; rimsulfuron 8.75 and 35.0 g/ha ai; Synchrony 35.03 and 140.11 g/ha ai; tribenuron 8.75 and 35.0 g/ha ai
Method: GAT round 7 (GAT7) transgenic events from construct PHP20163A were evaluated in 2004 for herbicide efficacy (JHM464TGATEFF) and yield potential (JHD4_GAT7 tests). […] 92M90 was selected as a STS variety to compare directly with the SAMS:ALS construct in the GAT7 events. Variety Jack was utilized as an untransformed negative control.
Selected lines were grown in experiment JHM5G030 in two replications of paired twelve foot rows, with eleven different treatments applied. Lines were blocked by event and treatment to provide side-by-side comparison of the eleven different spray treatments, with a 2 row border between each treatment to catch any spray drift. […] Lines were given a 100 (complete susceptibility, 100% damage) to 0 (complete tolerance, 0% damage) visual rating at 7 days after treatment and again at 14 days after treatment. Visual ratings were based upon overall degree of chlorosis, necrosis, and plant stunting (if evident) in the treated rows compared to the respective unsprayed control rows. Rating data at 7 and 14 days after spraying were subject to ANOVA and mean separation using SAS.

GAT-HRA soybeans = assay: Postemergence herbicide test on soybeans, % visual injury; assay type: in vivo, soybean; settings: 35 g/ha
Method: (§4) Four replications were performed for each treatment.
(§5) When possible, containers were thinned to two uniform plants.

[11] = tested on: Wild Type soybeans (Jack); assay: as above; assay type: in vivo, soybean; settings: non-transgenic control soybeans; 35 g/ha
Method: as §4, §5

SMILES | plants that eventually died [1] | Fresh Weight ([2]; weighed 2 weeks after treatment, untreated 76.4 g) | % visual injury to corn at 3472 g/ha ([2]; Zea mays, post-emergence) | Fresh Weight ([3]; weighed 2 weeks after treatment, untreated 98.8 g) | Visual crop injury (%) at 3472 g/ha ([3]; Zea mays, post-emergence) | control [4] | plants killed [5] | resistant callus initiation [6] | callus initiation ([7]; 0.5 mM glyphosate in medium) | callus growth ([7]; 1.0 and 2.0 mM glyphosate in medium) | state of plants after application ([8]; 1.5 lb acid equivalent per acre, 4-6 leaf stage, 2 weeks after application) | transgenic plants with no deleterious symptoms [9] | % Growth Reduction ([10]; Rimsulfuron 35 + Imazethapyr 0 g ai/ha, Treatment # 6) | % Growth Reduction ([10]; Rimsulfuron 70 + Imazethapyr 0 g ai/ha, Treatment # 11) | damage from the application ([8]; 16 g active ingredient/hectare, in the absence of glyphosate) | spray damage of the 4 GAT events compared to Jack and STS (lead GAT7 soybean events) | damage (GAT-HRA soybeans) | damage [11]
O=C(O)CNCP(=O)(O)O [Glyphosate, N-phosphonomethylglycine] | 15 of the 16 plants (12%) | 1.0 g | 100% | 97.4 g | 10% | 34% | 1 out of 16 plants (12%) | some embryos initiated resistant callus | about half of the embryos | very little callus growth | dead | approximately 50% |  |  |  |  |  | 
CCS(=O)(=O)c1cccnc1S(=O)(=O)NC(=O)Nc1nc(OC)cc(OC)n1 [Rimsulfuron, N-[[(4,6-dimethoxy-2-pyrimidinyl)amino]carbonyl]-3-(ethylsulfonyl)-2-pyridinesulfonamide] |  |  |  |  |  |  |  |  |  |  |  |  | 67% | 73% | severe damage | significantly less spray damage compared to Jack and STS |  | 
COC(=O)c1ccccc1S(=O)(=O)NC(=O)N(C)c1nc(C)nc(OC)n1 [Tribenuron-methyl, methyl 2-[[[[N-(4-methoxy-6-methyl-1,3,5-triazin-2-yl)-N-methylamino]carbonyl]-amino]sulfonyl]benzoate] |  |  |  |  |  |  |  |  |  |  |  |  |  |  |  | significantly less visual damage compared to STS and Jack | no significant damage | killed
